Results reported in paper PMC8272148, “Antioxidant Serine-(NSAID) Hybrids with Anti-Inflammatory and Hypolipidemic Potency” (Molecules, 2021).
Several values for one entry are separate records, joined by “and”; a condition that tells them apart may be missing. Equal entries are not always repeated. Marks after values point to notes of the source that are not given here.

Key:
[1] = system: rat hepatic microsomal membrane lipid peroxidation; experiment: Inhibition of rat hepatic microsomal membrane lipid peroxidation (ferrous ascorbate induced, TBA reactive material); type: biochemical; settings: after 45 min of incubation; for IC50: rat hepatic microsomal membrane; for Inhibition of Lipid Peroxidation, percent at 1 mM: 1 mM compound
Experimental: The peroxidation of the heat-inactivated rat hepatic microsomal fraction was induced by ferrous ascorbate. The studied compounds, in dimethylsulfoxide, were added at concentrations of 1 μM–1 mM. Aliquots were taken from the incubation mixture (37 °C) for 45 min. Lipid peroxidation was assessed spectrophotometrically (535/600 nm) as a 2-thiobarbituric acid reactive material. The incubation mixture and solvents were found not to interfere with the assay.

[2] = Interaction with the stable radical DPPH; settings: DPPH 200 μM, after 30 min
Experimental: Compounds, dissolved in absolute ethanol, at concentrations of 25–200 μM, were added to an equal volume of an ethanolic solution of DPPH (final concentration 200 μM) at room temperature (22 ± 2 °C). Absorbance (517 nm) was recorded after 30 min [26]. For the calculation of percent interaction, the residual absorbance of DPPH Ai (at a fixed concentration) after its interaction with the examined compounds (at various concentrations) was compared with the control absorbance Ao, without the addition of compounds, following the equation: (1) Percent interaction=100−(Ai/Ao×100)

[3] = system: carrageenan-induced rat paw edema; experiment: Carrageenan-induced rat paw edema; type: in vivo, Wistar rats; settings: ip, 0.15 mmol/kg i.p., 3.5 h after carrageenan, vs controls, read-out: % Edema Reduction
Experimental: An amount of 0.1 mL of an aqueous carrageenan solution (1% w/v) was injected into the hind paw of adult Wistar rats (6 rats were used for each compound). The tested compounds (in water with a few drops of Tween 80) were administered i.p. (0.15 mmol/kg) 5 min before the carrageenan administration. The produced edema, after 3.5 h, was estimated as paw weight increase.

[4] = target: T1, soybean lipoxygenase 1-B (Glycine max, UniProt P08170); experiment: In vitro inhibition of soybean lipoxygenase; type: biochemical; settings: linoleic acid (100 μM) as substrate, after 7 min of incubation; for inhibition at 100 µM: 100 μM compound, read-out: Lipoxygenase percent inhibition at 100 μM
T1 sequence (P08170 1-839): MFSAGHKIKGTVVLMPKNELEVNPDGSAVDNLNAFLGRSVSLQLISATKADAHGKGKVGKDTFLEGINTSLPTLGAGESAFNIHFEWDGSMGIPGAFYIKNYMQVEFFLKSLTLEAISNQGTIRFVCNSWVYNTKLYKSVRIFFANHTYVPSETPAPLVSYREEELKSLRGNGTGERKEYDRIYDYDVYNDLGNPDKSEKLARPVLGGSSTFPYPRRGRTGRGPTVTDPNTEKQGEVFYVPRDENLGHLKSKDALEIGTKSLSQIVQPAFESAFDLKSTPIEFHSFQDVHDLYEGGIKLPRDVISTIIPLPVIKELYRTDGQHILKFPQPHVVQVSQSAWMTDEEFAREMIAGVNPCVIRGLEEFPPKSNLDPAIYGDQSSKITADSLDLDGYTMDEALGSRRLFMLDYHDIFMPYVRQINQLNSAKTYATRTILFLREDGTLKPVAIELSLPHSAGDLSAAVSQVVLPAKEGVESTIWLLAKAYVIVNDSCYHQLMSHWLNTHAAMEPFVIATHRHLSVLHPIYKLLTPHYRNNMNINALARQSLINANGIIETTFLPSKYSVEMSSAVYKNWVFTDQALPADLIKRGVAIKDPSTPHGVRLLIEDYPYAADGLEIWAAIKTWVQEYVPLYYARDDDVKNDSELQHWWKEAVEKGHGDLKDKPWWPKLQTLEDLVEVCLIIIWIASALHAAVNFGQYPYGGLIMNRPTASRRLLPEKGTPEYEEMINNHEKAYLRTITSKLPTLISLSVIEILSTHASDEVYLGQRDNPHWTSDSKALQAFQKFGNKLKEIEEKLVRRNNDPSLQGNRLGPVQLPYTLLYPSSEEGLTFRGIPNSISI
Experimental: The reaction mixture contained the test compounds, dissolved in absolute ethanol (0.1 mL) at various concentrations, or the solvent (control, 0.1 mL), soybean lipoxygenase dissolved in 0.9% NaCl solution (250 u/mL, 0.2 mL) and sodium linoleate (100 μM) in Tris–HCl buffer, pH 9.0 (2.7 mL). The reaction was followed for 7 min at 28 °C, recording the absorbance of a conjugated diene structure at 234 nm, due to the formation of 13-hydroperoxy-linoleic acid. […] For the estimation of the type of inhibition, the above experiments were repeated, using sodium linoleate at 1 mM, which is higher than the saturating substrate concentration.

[5] = system: Triton WR1339 (tyloxapol)-induced hyperlipidemia; experiment: Triton WR1339 (tyloxapol)-induced hyperlipidemia in rats; type: in vivo, Wistar rats; settings: 150 μmol/kg i.p., rat plasma, 24 h, tyloxapol 200 mg/kg i.p.
Experimental: The examined compounds (0.15 mmol/kg) were administered i.p. one hour later. Blood was taken from the aorta after 24 h, for the determination of plasma total cholesterol, LDL cholesterol and triglyceride concentration, using commercial kits.

| SMILES | IC50 [1] [µM] | inhibition at 100 µM [4] [%] | IC50 [4] [µM] | Percent Interaction with DPPH ([2]; compound 25 μM) [%] | Percent Interaction with DPPH ([2]; compound 50 μM) [%] | Percent Interaction with DPPH ([2]; compound 100 μM) [%] | Percent Interaction with DPPH ([2]; compound 200 μM) | inhibition in vivo at 150 µmol/kg [3] [%] | Inhibition of Lipid Peroxidation, percent at 1 mM [1] [%/1 mM] | % Reduction LDL-C (LDL cholesterol) [5] | % Reduction TC (total cholesterol) [5] | % Reduction TG (triglycerides) [5] | Inhibition of Lipid Peroxidation, percent at 500 μM ([1]; 500 μM compound) [%/500 μM] | Inhibition of Lipid Peroxidation, percent at 50 μM ([1]; 50 μM compound) [%/50 μM] |
| --- | --- | --- | --- | --- | --- | --- | --- | --- | --- | --- | --- | --- | --- | --- |
| Cc1c(C)c2c(c(C)c1O)CCC(C)(C(=O)NC(CO)C(=O)O)O2 (centres unmarked) [Compound 1, 3-Hydroxy-2-(6-hydroxy-2,5,7,8-tetramethylchroman-2-carboxamido)propanoic acid] | 150 | 30 |  | 19.6 | 48.0 | 87.0 | 90.4% | 43 |  |  |  |  |  |  |
| CC(C)(C)c1cc(/C=C/C(=O)NC(CO)C(=O)O)cc(C(C)(C)C)c1O (centres unmarked) [Compound 3, (E)-2-(3-(3,5-di-tert-butyl-4-hydroxyphenyl)acrylamido)-3-hydroxypropanoic acid] | 80 | 20 |  | 12.9 | 17.4 | 35.9 | 82.3% | 27 |  |  |  |  |  |  |
| CCOC(=O)C(CO)NC(=O)C1(C)CCc2c(C)c(O)c(C)c(C)c2O1 (centres unmarked) [Compound 4, Ethyl 3-hydroxy-2-(6-hydroxy-2,5,7,8-tetramethylchroman-2-carboxamido)propanoate] | 7.3 | 15 |  | 24.5 | 53.3 | 88.2 | 92.4% | 37 |  | 60.2 * % | 46.2 ** % | 53.4 ** % |  |  |
| CC(C)Cc1ccc(C(C)C(=O)O)cc1 (centres unmarked) [Ibuprofen, ibuprofen, reference compound] |  |  |  |  |  |  |  | 36 |  |  |  |  |  |  |
| CC(C(=O)O)c1cccc(C(=O)c2ccccc2)c1 (centres unmarked) [Ketoprofen, ketoprofen, reference compound] |  |  | 220 |  |  |  |  |  |  |  |  |  |  |  |
| Cc1c(C)c2c(c(C)c1O)CCC(C)(C(=O)O)O2 (centres unmarked) [Trolox, 6-hydroxy-2,5,7,8-tetramethylchroman-2-carboxylic acid, reference compound] | 25 |  | > 300 | 22.0 | 38.0 | 90.0 | 92.0% |  |  |  |  |  |  |  |

Further lines, with some results ahead:

| IC50 [1] [µM] | inhibition at 100 µM [4] [%] | IC50 [4] [µM] | SMILES | Percent Interaction with DPPH ([2]; compound 25 μM) [%] | Percent Interaction with DPPH ([2]; compound 50 μM) [%] | Percent Interaction with DPPH ([2]; compound 100 μM) [%] | Percent Interaction with DPPH ([2]; compound 200 μM) | inhibition in vivo at 150 µmol/kg [3] [%] | Inhibition of Lipid Peroxidation, percent at 1 mM [1] [%/1 mM] | % Reduction LDL-C (LDL cholesterol) [5] | % Reduction TC (total cholesterol) [5] | % Reduction TG (triglycerides) [5] | Inhibition of Lipid Peroxidation, percent at 500 μM ([1]; 500 μM compound) [%/500 μM] | Inhibition of Lipid Peroxidation, percent at 50 μM ([1]; 50 μM compound) [%/50 μM] |
| --- | --- | --- | --- | --- | --- | --- | --- | --- | --- | --- | --- | --- | --- | --- |
|  | 15 |  | CC(C)(C)c1cc(C(=O)NC(CO)C(=O)O)cc(C(C)(C)C)c1O (centres unmarked) [Compound 2, 2-(3,5-Di-tert-butyl-4-hydroxybenzamido)-3-hydroxypropanoic acid] |  |  |  | lower than 10% | 44 | 40 |  |  |  |  |  |
| 163 |  | 200 | CCOC(=O)C(CO)NC(=O)c1cc(C(C)(C)C)c(O)c(C(C)(C)C)c1 (centres unmarked) [Compound 5, Ethyl 2-(3,5-di-tert-butyl-4-hydroxybenzamido)-3-hydroxypropanoate] |  |  |  | lower than 10% | 47 |  | 66.0 ** % | 52.3 ** % | 62.0 ** % |  |  |
| 22 |  | 156 | CCOC(=O)C(CO)NC(=O)/C=C/c1cc(C(C)(C)C)c(O)c(C(C)(C)C)c1 (centres unmarked) [Compound 6, (E)-ethyl 2-(3-(3,5-di-tert-butyl-4-hydroxyphenyl)acrylamido)-3-hydroxypropanoate] | 17.9 | 21.2 | 48.6 | 88.7% | 44 |  |  |  |  |  |  |
| 3.4 | < 15 |  | CCOC(=O)C(COC(=O)C(C)c1ccc(CC(C)C)cc1)NC(=O)C1(C)CCc2c(C)c(O)c(C)c(C)c2O1 (centres unmarked) [Compound 7, Ethyl 2-(6-hydroxy-2,5,7,8-tetramethylchroman-2-carboxamido)-3-((2-(4-isobutylphenyl)propanoyl)oxy)propanoate] | 22.6 | 54.2 | 89.0 | 91.6% | 45 |  |  |  |  |  |  |
|  |  | 13 | CCOC(=O)C(COC(=O)C(C)c1ccc(CC(C)C)cc1)NC(=O)c1cc(C(C)(C)C)c(O)c(C(C)(C)C)c1 (centres unmarked) [Compound 8, Ehyl 2-(3,5-di-tert-butyl-4-hydroxybenzamido)-3-((2-(4-isobutylphenyl)propanoyl)oxy)propanoate] |  |  | 4.0 | 18.7% | 48 |  |  |  |  | 30 |  |
|  |  | 80 | CCOC(=O)C(COC(=O)C(C)c1ccc(CC(C)C)cc1)NC(=O)/C=C/c1cc(C(C)(C)C)c(O)c(C(C)(C)C)c1 (centres unmarked) [Compound 9, (E)-ethyl 2-(3-(3,5-di-tert-butyl-4-hydroxyphenyl)acrylamido)-3-((2-(4-isobutylphenyl)propanoyl)oxy)propanoate] | 15.5 | 31.8 | 58.0 | 90.9% | 52 |  | 70% and 70.1 * % | 61% and 61.2 ** % | 52% and 52.1 ** % |  | 20 |
| 2.8 | 23 |  | CCOC(=O)C(COC(=O)C(C)c1cccc(C(=O)c2ccccc2)c1)NC(=O)C1(C)CCc2c(C)c(O)c(C)c(C)c2O1 (centres unmarked) [Compound 10, Ethyl 3-((2-(3-benzoylphenyl)propanoyl)oxy)-2-(6-hydroxy-2,5,7,8-tetramethylchroman-2-carboxamido)propanoate] | 12.4 | 30.1 | 64.6 | 87.0% | 42 |  |  |  |  |  |  |
|  |  | 86 | CCOC(=O)C(COC(=O)C(C)c1cccc(C(=O)c2ccccc2)c1)NC(=O)c1cc(C(C)(C)C)c(O)c(C(C)(C)C)c1 (centres unmarked) [Compound 11, Ethyl 3-((2-(3-benzoylphenyl)propanoyl)oxy)-2-(3,5-di-tert-butyl-4-hydroxybenzamido)propanoate] |  |  |  | lower than 10% | 67 | 30 | 51.2 ** % | 57.6 ** % | 44.5 * % |  |  |
